# Measured values as given in ChEMBL document CHEMBL5665443, “Enzyme Inhibitor Single Concentration assay results for EUbOPEN Chemogenomics Library” (2024).
# Tests used:
# [1] = target: DNA-3-methyladenine glycosylase (Homo sapiens) (UniProt P29372); conditions: Compound Concentration 10.0 uM;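 also: enzyme assay where MPG cuts a quenched duplex DNA oligonucleotide probe, paired with APE1 for strand incision and turnover, read as fluorescence at 594 nm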
# Description: Inhibition of MPG by quantifying inhibition of MPG-mediated cleavage and dissociation of quenched duplex DNA oligonucleotides, measured as fluorescence at 594 nm. To generate a functional strand incision and increase turn-over this assay is coupled to APE1.
# [2] = target: Methyl-CpG-binding domain protein 4 (Homo sapiens) (UniProt O95243); conditions: Compound Concentration 10.0 uM;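 also: MBD4 activity read as fluorescence at 594 nm from cleavage and release of a quenched duplex DNA oligonucleotide, with APE1 coupled to incise the strand and raise turnover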
# Description: Inhibition of MBD4 by quantifying inhibition of MBD4-mediated cleavage and dissociation of quenched duplex DNA oligonucleotides, measured as fluorescence at 594 nm. To generate a functional strand incision and increase turn-over this assay is coupled to APE1.
# [3] = target: Uracil-DNA glycosylase (Homo sapiens) (UniProt P13051); conditions: Compound Concentration 10.0 uM, Hit No;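 also: UNG excision on a quenched double-stranded DNA oligo probe, with APE1 added for strand incision and turnover, read as fluorescence at 594 nm as strands separate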
# Description: Inhibition of UNG by quantifying inhibition of UNG-mediated cleavage and dissociation of quenched duplex DNA oligonucleotides, measured as fluorescence at 594 nm. To generate a functional strand incision and increase turn-over this assay is coupled to APE1.
# [4] = target: T1, Adenine DNA glycosylase (Homo sapiens) (UniProt Q9UIF7); conditions: Compound Concentration 10.0 uM;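 also: human MUTYH activity read as 594 nm fluorescence from cleavage and release of a quenched DNA duplex, coupled with APE1 for strand incision, lower signal meaning inhibition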
# T1 sequence (whole entry): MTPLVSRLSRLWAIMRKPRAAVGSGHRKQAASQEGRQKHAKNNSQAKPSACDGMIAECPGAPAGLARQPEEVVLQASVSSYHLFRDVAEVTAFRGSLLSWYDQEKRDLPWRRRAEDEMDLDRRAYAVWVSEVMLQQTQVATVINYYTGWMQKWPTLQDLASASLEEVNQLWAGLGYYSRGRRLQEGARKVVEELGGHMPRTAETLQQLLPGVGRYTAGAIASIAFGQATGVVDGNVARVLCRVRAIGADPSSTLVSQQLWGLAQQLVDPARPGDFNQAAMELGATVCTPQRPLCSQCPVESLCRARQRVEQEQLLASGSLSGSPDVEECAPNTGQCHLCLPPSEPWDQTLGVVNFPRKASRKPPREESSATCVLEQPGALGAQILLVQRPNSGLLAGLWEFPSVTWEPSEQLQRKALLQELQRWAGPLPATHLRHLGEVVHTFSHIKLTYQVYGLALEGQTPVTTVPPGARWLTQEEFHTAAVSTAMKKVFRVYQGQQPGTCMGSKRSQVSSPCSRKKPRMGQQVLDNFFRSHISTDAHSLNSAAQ
# Description: Inhibition of MUTYH by quantifying inhibition of MUTYH-mediated cleavage and dissociation of quenched duplex DNA oligonucleotides, measured as fluorescence at 594 nm. To generate a functional strand incision and increase turn-over this assay is coupled to APE1.
# [5] = target: G/T mismatch-specific thymine DNA glycosylase (Homo sapiens) (UniProt Q13569); conditions: Compound Concentration 10.0 uM;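 also: human TDG cleavage of quenched duplex DNA oligonucleotides coupled to APE1, strand release read as fluorescence at 594 nm, inhibition of TDG activity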
# Description: Inhibition of TDG by quantifying inhibition of TDG-mediated cleavage and dissociation of quenched duplex DNA oligonucleotides, measured as fluorescence at 594 nm. To generate a functional strand incision and increase turn-over this assay is coupled to APE1.
# [6] = target: T2, Endonuclease 8-like 2 (Homo sapiens) (UniProt Q969S2); conditions: Compound Concentration 10.0 uM, Hit No;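 also: fluorescence at 594 nm reports NEIL2 cutting and release of a quenched double-stranded DNA oligo substrate, reduced signal read as inhibition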
# T2 sequence (whole entry): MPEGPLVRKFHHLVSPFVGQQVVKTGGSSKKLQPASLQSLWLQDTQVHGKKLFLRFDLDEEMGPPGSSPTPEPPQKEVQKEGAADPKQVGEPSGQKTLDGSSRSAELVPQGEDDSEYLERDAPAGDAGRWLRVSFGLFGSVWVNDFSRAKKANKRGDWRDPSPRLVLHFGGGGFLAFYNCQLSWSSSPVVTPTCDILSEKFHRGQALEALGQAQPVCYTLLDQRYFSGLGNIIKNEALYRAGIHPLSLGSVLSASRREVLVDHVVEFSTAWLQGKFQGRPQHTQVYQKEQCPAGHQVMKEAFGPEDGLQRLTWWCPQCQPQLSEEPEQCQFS
# Description: Inhibition of NEIL2 by quantifying inhibition of NEIL2-mediated cleavage and dissociation of quenched duplex DNA oligonucleotides, measured as fluorescence at 594 nm.
# [7] = target: T3, Endonuclease III-like protein 1 (Homo sapiens) (UniProt P78549); conditions: Compound Concentration 10.0 uM, Hit No;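 also: enzyme assay tracking NTHL1 cutting and release of a quenched double-stranded DNA oligo substrate, read as fluorescence at 594 nm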
# T3 sequence (whole entry): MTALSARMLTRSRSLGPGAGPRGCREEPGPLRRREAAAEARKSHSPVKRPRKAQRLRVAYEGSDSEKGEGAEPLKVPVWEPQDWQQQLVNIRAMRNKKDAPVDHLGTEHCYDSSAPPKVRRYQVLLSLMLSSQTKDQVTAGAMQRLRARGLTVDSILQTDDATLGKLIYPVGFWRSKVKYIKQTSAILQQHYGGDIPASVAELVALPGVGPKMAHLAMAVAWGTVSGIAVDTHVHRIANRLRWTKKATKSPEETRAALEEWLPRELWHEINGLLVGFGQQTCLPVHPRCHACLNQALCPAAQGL
# Description: Inhibition of NTHL1 by quantifying inhibition of NTHL1-mediated cleavage and dissociation of quenched duplex DNA oligonucleotides, measured as fluorescence at 594 nm.
# [8] = target: T4, Single-strand selective monofunctional uracil DNA glycosylase (Homo sapiens) (UniProt Q53HV7); conditions: Compound Concentration 10.0 uM, Hit No;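 also: enzymatic SMUG1 assay coupled with APE1, reading fluorescence at 594 nm released when a quenched double-stranded DNA oligonucleotide substrate is cleaved and separated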
# T4 sequence (whole entry): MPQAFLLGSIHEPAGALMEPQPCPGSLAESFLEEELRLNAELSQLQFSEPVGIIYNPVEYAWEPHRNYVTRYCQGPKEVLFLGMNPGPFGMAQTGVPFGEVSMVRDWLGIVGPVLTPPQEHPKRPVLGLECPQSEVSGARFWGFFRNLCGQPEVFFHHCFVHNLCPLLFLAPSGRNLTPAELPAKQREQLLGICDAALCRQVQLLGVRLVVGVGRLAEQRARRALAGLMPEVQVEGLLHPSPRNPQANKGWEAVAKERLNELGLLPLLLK
# Description: Inhibition of SMUG1 by quantifying inhibition of SMUG1-mediated cleavage and dissociation of quenched duplex DNA oligonucleotides, measured as fluorescence at 594 nm. To generate a functional strand incision and increase turn-over this assay is coupled to APE1.
# [9] = target: Endonuclease 8-like 1 (Homo sapiens) (UniProt Q96FI4); conditions: Compound Concentration 10.0 uM, Hit No;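 also: fluorescence at 594 nm from quenched duplex DNA oligonucleotides released by NEIL1 cleavage and strand separation, reported as reduction of this enzyme activity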
# Description: Inhibition of NEIL1 by quantifying inhibition of NEIL1-mediated cleavage and dissociation of quenched duplex DNA oligonucleotides, measured as fluorescence at 594 nm.
# [10] = target: N-glycosylase/DNA lyase (Homo sapiens) (UniProt O15527); conditions: Compound Concentration 10.0 uM;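 also: OGG1 cleavage of a quenched duplex DNA oligonucleotide, coupled to APE1 for strand incision, read as fluorescence at 594 nm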
# Chain of N-glycosylase/DNA lyase (Homo sapiens) (O15527 whole entry): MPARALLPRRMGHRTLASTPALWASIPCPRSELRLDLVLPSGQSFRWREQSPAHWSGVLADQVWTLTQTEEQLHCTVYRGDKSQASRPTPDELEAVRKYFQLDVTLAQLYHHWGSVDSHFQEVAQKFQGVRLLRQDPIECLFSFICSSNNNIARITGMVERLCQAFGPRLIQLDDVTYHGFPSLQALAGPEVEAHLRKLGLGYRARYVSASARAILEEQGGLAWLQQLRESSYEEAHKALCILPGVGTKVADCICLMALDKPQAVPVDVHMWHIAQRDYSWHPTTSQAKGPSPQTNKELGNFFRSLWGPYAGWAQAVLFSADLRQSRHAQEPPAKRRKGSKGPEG
# Description: Inhibition of OGG1 by quantifying inhibition of OGG1-mediated cleavage and dissociation of quenched duplex DNA oligonucleotides, measured as fluorescence at 594 nm. To generate a functional strand incision and increase turn-over this assay is coupled to APE1.
# Chain of Endonuclease 8-like 1 (Homo sapiens) (Q96FI4 whole entry): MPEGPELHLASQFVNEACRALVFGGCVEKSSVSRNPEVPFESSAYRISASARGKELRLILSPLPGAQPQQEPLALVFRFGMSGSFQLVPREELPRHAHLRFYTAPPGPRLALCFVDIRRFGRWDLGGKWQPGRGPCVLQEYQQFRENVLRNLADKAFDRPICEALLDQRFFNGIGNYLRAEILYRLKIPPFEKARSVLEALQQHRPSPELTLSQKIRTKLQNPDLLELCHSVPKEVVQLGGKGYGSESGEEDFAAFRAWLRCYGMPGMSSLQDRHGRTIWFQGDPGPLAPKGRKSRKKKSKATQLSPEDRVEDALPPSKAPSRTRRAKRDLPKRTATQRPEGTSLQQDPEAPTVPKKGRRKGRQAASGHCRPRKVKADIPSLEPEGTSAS
# Chain of DNA-3-methyladenine glycosylase (Homo sapiens) (P29372 whole entry, the tested form may be a part): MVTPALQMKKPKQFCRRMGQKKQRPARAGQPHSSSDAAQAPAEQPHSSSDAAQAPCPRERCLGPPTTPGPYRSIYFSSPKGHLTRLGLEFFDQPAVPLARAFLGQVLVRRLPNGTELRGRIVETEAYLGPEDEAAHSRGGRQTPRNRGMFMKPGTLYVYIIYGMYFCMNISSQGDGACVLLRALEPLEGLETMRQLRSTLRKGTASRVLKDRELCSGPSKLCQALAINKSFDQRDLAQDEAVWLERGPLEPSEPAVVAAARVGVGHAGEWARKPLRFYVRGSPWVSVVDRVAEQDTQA
# Chain of Methyl-CpG-binding domain protein 4 (Homo sapiens) (O95243 whole entry, the tested form may be a part): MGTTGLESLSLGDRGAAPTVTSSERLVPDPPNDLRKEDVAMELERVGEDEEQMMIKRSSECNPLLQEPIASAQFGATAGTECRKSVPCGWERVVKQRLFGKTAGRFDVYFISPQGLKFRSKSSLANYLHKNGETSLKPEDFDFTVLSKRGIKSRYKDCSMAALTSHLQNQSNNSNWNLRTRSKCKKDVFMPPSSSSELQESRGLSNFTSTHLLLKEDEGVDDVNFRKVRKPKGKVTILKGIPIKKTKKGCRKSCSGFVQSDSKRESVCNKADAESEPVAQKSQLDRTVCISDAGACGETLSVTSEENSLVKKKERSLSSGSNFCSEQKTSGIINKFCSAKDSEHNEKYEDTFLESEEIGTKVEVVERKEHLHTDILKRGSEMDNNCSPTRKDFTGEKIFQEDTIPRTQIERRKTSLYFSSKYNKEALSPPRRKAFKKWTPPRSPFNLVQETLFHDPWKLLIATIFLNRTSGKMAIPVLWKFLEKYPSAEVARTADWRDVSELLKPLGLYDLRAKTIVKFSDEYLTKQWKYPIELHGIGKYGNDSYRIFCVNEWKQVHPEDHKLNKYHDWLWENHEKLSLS
# Chain of G/T mismatch-specific thymine DNA glycosylase (Homo sapiens) (Q13569 whole entry): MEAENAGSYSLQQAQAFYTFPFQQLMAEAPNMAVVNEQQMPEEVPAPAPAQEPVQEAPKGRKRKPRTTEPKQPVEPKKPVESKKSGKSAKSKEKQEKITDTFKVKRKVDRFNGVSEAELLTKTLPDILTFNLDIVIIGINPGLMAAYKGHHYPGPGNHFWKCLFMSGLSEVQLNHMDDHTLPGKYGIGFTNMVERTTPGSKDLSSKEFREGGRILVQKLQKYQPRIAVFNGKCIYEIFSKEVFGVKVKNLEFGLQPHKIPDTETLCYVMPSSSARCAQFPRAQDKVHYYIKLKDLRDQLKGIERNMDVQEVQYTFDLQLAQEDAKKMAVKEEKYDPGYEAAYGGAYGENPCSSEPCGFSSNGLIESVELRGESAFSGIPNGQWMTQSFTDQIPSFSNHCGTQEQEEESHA
# Chain of Uracil-DNA glycosylase (Homo sapiens) (P13051 whole entry): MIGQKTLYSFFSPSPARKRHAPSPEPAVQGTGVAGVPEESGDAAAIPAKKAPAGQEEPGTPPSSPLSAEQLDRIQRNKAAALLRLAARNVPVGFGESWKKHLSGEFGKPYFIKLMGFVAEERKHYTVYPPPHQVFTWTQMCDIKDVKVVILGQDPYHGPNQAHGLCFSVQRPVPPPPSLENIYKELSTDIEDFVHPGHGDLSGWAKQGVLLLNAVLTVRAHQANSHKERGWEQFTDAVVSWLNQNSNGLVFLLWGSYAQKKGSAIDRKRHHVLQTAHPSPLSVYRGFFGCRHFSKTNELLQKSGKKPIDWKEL
SMILES,inhibition ([1]; Hit No) [%],inhibition ([2]; Hit No) [%],inhibition [3] [%],inhibition ([4]; Hit No) [%],inhibition ([5]; Hit No) [%],inhibition [6] [%],inhibition [7] [%],inhibition [8] [%],inhibition [9] [%],inhibition ([10]; Hit No) [%],inhibition ([10]; Hit Yes) [%],inhibition ([1]; Hit Yes) [%],inhibition ([2]; Hit Yes) [%],inhibition ([4]; Hit Yes) [%],inhibition ([5]; Hit Yes) [%]
CO[C@H]1CC=C2CCN3CCC4=C(CC(=O)OC4)[C@]23C1,-7.01,5.26,-6.82,1.14,-1.81,-5.96,-0.258,-2.5,-3.1,,,,,,
COC1(C[S@@+]([O-])c2ccccc2)CCN(CCc2c[nH]c3ccc(F)cc23)CC1,-3.99,2.25,-4,-7.4,6.29,,17.1,-8.49,5.2,,,,,,
CC[C@H]1CN(c2nc(N)c(C(N)=O)nc2Cl)CCN1C1CCN(Cc2ccc(Cl)cc2)CC1,-5.95,-2.17,-8.52,-3.97,2.57,3.47,24.5,-7.08,5.05,,,,,,
C[C@@H](C(N)=O)[C@H](N)c1nc2ccc(C(C)(C)C)cc2[nH]1,2.09,10.2,-4.85,0.595,6.56,,12.9,-0.466,0.158,,,,,,
C=CC(=O)Nc1cccc(C(=O)Nc2ccc(Nc3cc(-c4[nH]c(S)nc4C)ccn3)cc2)c1,19.6,23.5,3.19,61,102,8.04,-6.89,16.9,5.55,,,,,,
COc1cc(OC2CCN(C(C)=O)CC2)ccc1C(=O)N1CCC(N2C(=O)OCc3ccccc32)CC1,-3.3,5.95,-2.76,48.1,20.8,5.25,24.5,-0.579,2.08,,,,,,
CCNC(=O)[C@H]1O[C@@H](n2cnc3c(N)ncnc32)[C@H](O)[C@@H]1O,-3.56,-0.442,-2.94,-3.4,-4.15,,17.9,-5.33,3.86,,,,,,
CCCCC[C@H](O)/C=C/[C@@H]1[C@@H](C/C=C\CCCC(=O)O)[C@@H](O)C[C@H]1O,-6.92,-2.06,-8.4,-4.2,25.5,0.515,7.79,8.11,7.21,,,,,,
CC(C)(C)c1ccc(NC(=O)N2CCN(c3ncccc3Cl)CC2)cc1,9.36,8.84,-5.92,-0.729,11,,21.2,-0.579,-1.77,,,,,,
N#Cc1cccc(-c2nc(-c3cccnc3)no2)c1,-9.43,-5.03,-2.96,-6.2,-5.18,-2.39,-1.08,-8.21,2.53,,,,,,
CN(C)CCCc1cc(C(=O)Nc2ccc(-c3ccncc3)cc2)ccc1O,5.48,15.3,-0.815,5.24,22.9,8.82,12.1,1.23,0.602,,,,,,
C[C@@H](Cn1c(=O)[nH]/c(=N\c2ccc(Oc3ccccn3)cc2)n(Cc2ccc(Cl)cc2)c1=O)C(=O)O,14.7,25.3,-3.28,14.4,23.6,5.25,24.5,,5.49,-4.95,,,,,
O=c1cc(-c2cc(F)c(Cl)nc2Cl)[nH]c2c(-c3ccccc3)c(C(F)(F)F)nn12,43.4,66.3,1.49,63.1,54.8,16,8,,-6.07,,60.4,,,,
COc1cccc(OC)c1-c1cc(C(=O)NC2(C(=O)O)C3CC4CC(C3)CC2C4)nn1-c1ccnc2cc(Cl)ccc12 (stereo unspecified),18.6,44.5,-7.21,53.6,45.2,-7.72,24.6,,-4.95,23.9,,,,,
CCCCC(=O)N(Cc1ccc(-c2ccccc2C(=O)O)cc1)c1ccccc1,11.5,33.4,-5.18,18,23.9,-3.15,7.17,,1.79,-7.96,,,,,
FC(F)(F)c1ccc(N2CCNCC2)nc1Cl,8.14,12.7,-2.44,-0.34,27.6,-1.62,11.3,,-3.1,-4.95,,,,,
CC1(C)CC(=O)c2c(SCCO)sc(-c3nccs3)c2C1,8.86,23.5,-4.5,15.5,13.8,1.94,28.6,,-2.21,-7.89,,,,,
CCCCCCNC(=O)Nc1ccc(S(=O)(=O)Nc2ccc(CCNC[C@H](O)COc3ccc(O)cc3)cc2)cc1,,,5.25,,,-3.66,10.5,,-4.58,3.62,,105,102,107,105
CC(C)(O)c1ccc2c(c1)ncn2-c1cccc(-c2ccccc2C#N)c1,3.49,26.4,-7.68,-2.7,-5.39,,12.1,1,-1.62,,,,,,
COc1ccc(CC(=O)NC(N/C(=N/C#N)Nc2cccc3ncccc23)C(C)(C)C)cc1OC (stereo unspecified),7.8,-7.77,-5.2,7.91,7.3,1.94,16.2,,3.12,-8,,,,,
CCCCCCCCCCCCCCC[C@@H](O)[C@@H](N)COP(=O)(O)O,9.63,-8.45,-5.95,-9.71,3,4.76,5.59,,6.76,-0.598,,,,,
O=C(O)c1cccc(/C=C2/C[C@@H]3[C@@H](/C=C/[C@H](O)C4CCCCC4)[C@H](O)C[C@@H]3O2)c1,18.3,16.8,-4.36,18.1,21.2,-5.7,15.4,,-8.73,-8.69,,,,,
Brc1c(NC2=NCCN2)ccc2nccnc12,-8.07,,,-8.17,1.79,6.5,-4.67,-5.99,-5.69,,,,140,,
